The source of these data is ChEMBL document CHEMBL1126639, “Centrally acting serotonergic and dopaminergic agents. 2. Synthesis and structure-activity relationships of 2,3,3a,4,9,9a-hexahydro-1H-benz[f]indole derivatives” (J Med Chem, 1993).

SMILES strings stand for the structures.

Experiment [1] concerns Mus musculus. Nature of the experiment: (§1) Time of effect in the face-to-face behavioral assay in the mouse when a dose of […] is administered perorally. It is filed as functional.
In experiment [2] the test system is Mus musculus. Nature of the experiment: Time of effect in the isolation-induced aggression behavioral assay in the mouse when a dose of 36 micro mol/kg is administered intraperitoneally. The format is functional.
Another experiment concerns the target D(2) dopamine receptor (Rattus norvegicus, UniProt P61169). Nature of the experiment: Inhibitory concentration against [3H]raclopride-labeled dopamine receptor D2 in rat striatum. It is filed as tissue-based.
Experiment [3] concerns Rattus norvegicus. Nature of the experiment: Inhibition of firing rates of dopaminergic neurons in the substantia nigra pars compacta by intravenous injection in rats. It is filed as functional.
For experiment [4], the system named is Rattus norvegicus. Nature of the experiment: Effect on the synthesis rates of dopamine (DOPA accumulation) in the rat ventral limbic brain region at 10.7 uM/kg. It is filed as functional, Limbic system.
Experiment [5] relates to Mus musculus. Put plainly: Effective dose on hypothermia in mouse when administered subcutaneously. The format is functional.
The subject of experiment [6] is Mus musculus. Put plainly: Time of effect in the isolation-induced aggression behavioral assay in the mouse when a dose of 11 umol/kg is administered intraperitoneally. The format is functional.
The test system of experiment [7] is Mus musculus. Put plainly: Maximum decrease in temperature when compound is administered through peroral route. It is filed as functional.
The test system of experiment [8] is Mus musculus. Described as §1. It is filed as functional. The source holds these as a separate data set.
In experiment [9] the test system is Mus musculus. Nature of the experiment: Time of effect in the isolation-induced aggression behavioral assay in the mouse when a dose of 3.6 micro mol/kg is administered perorally. The format is functional.
Experiment [10] deals with Rattus norvegicus. Put plainly: Effect on the synthesis rates of serotonin (5-HTP accumulation) in the rat ventral limbic brain region 10.7 umol/kg. It is filed as functional, Limbic system.
Experiment [11] concerns Mus musculus. Put plainly: Effective dose on hypothermia in mouse when administered through peroral route. The format is functional.
The test system of experiment [12] is Rattus norvegicus. Put plainly: Inhibition of firing rates of serotonergic neurons in the dorsal raphe nucleus by intravenous injection in rats. The format is functional.
Experiment [13] has as its system Mus musculus. Nature of the experiment: Time of effect in the isolation-induced aggression behavioral assay in the mouse when a dose of 0.0 umol/kg is administered intraperitoneally. It is filed as functional.
Experiment [14] relates to Mus musculus. Nature of the experiment: Time of effect in the isolation-induced aggression behavioral assay in the mouse when a dose of 1.1 micro mol/kg is administered perorally. It is filed as functional.
In experiment [15] the test system is Mus musculus. Put plainly: Time of effect in the isolation-induced aggression behavioral assay in the mouse when a dose of 11 micro mol/kg is administered perorally. The format is functional.
The subject of experiment [16] is Mus musculus. Nature of the experiment: Time of effect in the isolation-induced aggression behavioral assay in the mouse when a dose of 36 micro mol/kg is administered perorally. It is filed as functional.
Experiment [17] relates to Mus musculus. Nature of the experiment: Maximum decrease in temperature when compound is administered subcutaneously. It is filed as functional.
Experiment [18] deals with Mus musculus. Put plainly: Time of effect in the isolation-induced aggression behavioral assay in the mouse when a dose of 0.0 micro mol/kg is administered perorally. The format is functional.
Experiment [19] relates to Mus musculus. Put plainly: Time of effect in the face-to-face behavioral assay in the mouse when a dose of 0.4 umol/kg is administered perorally. The format is functional.
In experiment [20] the test system is Mus musculus. Put plainly: Ability to stimulate dopaminergic systems by effect on locomotor activity in reserpinized mice when a dose of 33 micro mol/kg is administered intraperitoneally. The format is functional.
Experiment [21] concerns Mus musculus. Nature of the experiment: Ability to stimulate dopaminergic systems by effect on locomotor activity in reserpinized mice when a dose of 3.3 micro mol/kg is administered intraperitoneally. It is filed as functional.
In experiment [22] the test system is Mus musculus. Nature of the experiment: Antagonism of apomorphine for 0-10 minutes in reserpinized mice when a dose of 3.3 micro mol/kg is administered intraperitoneally. It is filed as functional.
The subject of experiment [23] is Mus musculus. Nature of the experiment: Antagonism of apomorphine for 10-20 minutes in reserpinized mice when a dose of 3.3 micro mol/kg is administered intraperitoneally. The format is functional.
Experiment [24] relates to Mus musculus. Put plainly: Antagonism of apomorphine for 10-20 minutes in reserpinized mice when a dose of 33 micro mol/kg is administered intraperitoneally. The format is functional.
For experiment [25], the system named is Mus musculus. Put plainly: Antagonism of apomorphine for 0-10 minutes in reserpinized mice when a dose of 0.3 micro mol/kg is administered intraperitoneally. The format is functional.
Experiment [26] has as its system Mus musculus. Put plainly: Antagonism of apomorphine in reserpinized mice when a dose of 3.3 micro mol/kg is administered intraperitoneally. The format is functional.
Experiment [27] has as its system Mus musculus. Nature of the experiment: Antagonism of apomorphine in reserpinized mice when a dose of 33 micro mol/kg is administered intraperitoneally. The format is functional.
For experiment [28], the system named is Mus musculus. Put plainly: Antagonism of apomorphine for 10-20 minutes in reserpinized mice when a dose of 0.3 micro mol/kg is administered intraperitoneally. It is filed as functional.
For experiment [29], the system named is Mus musculus. Nature of the experiment: Ability to stimulate dopaminergic systems by effect on locomotor activity in reserpinized mice when a dose of 0.3 micro mol/kg is administered intraperitoneally. It is filed as functional.
In experiment [30] the test system is Mus musculus. Put plainly: Antagonism of apomorphine for 0-10 minutes in reserpinized mice when a dose of 33 micro mol/kg is administered intraperitoneally. It is filed as functional.
The subject of experiment [31] is Mus musculus. Nature of the experiment: Antagonism of apomorphine in reserpinized mice when a dose of 0.3 micro mol/kg is administered intraperitoneally. The format is functional.
Experiment [32] deals with Rattus norvegicus. Put plainly: Effect on the synthesis rates of dopamine in the rat ventral limbic brain region at 2.7 micro mol/kg. It is filed as functional, Limbic system.
Experiment [33] relates to Mus musculus. Put plainly: Antagonism of apomorphine for 0-10 minutes in reserpinized mice when a dose of 2.7 micro mol/kg is administered intraperitoneally. It is filed as functional.
The subject of experiment [34] is Mus musculus. Nature of the experiment: Ability to stimulate dopaminergic systems by effect on locomotor activity in reserpinized mice when a dose of 2.7 micro mol/kg is administered intraperitoneally. It is filed as functional.
In experiment [35] the test system is Rattus norvegicus. Nature of the experiment: Effect on the synthesis rates of serotonin in the rat ventral limbic brain region 2.7 micro mol/kg. It is filed as functional, Limbic system.
The subject of experiment [36] is Mus musculus. Put plainly: Antagonism of apomorphine in reserpinized mice when a dose of 2.7 micro mol/kg is administered intraperitoneally. The format is functional.
The subject of experiment [37] is Mus musculus. Put plainly: Antagonism of apomorphine for 10-20 minutes in reserpinized mice when a dose of 2.7 micro mol/kg is administered intraperitoneally. It is filed as functional.

Chain of D(2) dopamine receptor (P61169 whole entry): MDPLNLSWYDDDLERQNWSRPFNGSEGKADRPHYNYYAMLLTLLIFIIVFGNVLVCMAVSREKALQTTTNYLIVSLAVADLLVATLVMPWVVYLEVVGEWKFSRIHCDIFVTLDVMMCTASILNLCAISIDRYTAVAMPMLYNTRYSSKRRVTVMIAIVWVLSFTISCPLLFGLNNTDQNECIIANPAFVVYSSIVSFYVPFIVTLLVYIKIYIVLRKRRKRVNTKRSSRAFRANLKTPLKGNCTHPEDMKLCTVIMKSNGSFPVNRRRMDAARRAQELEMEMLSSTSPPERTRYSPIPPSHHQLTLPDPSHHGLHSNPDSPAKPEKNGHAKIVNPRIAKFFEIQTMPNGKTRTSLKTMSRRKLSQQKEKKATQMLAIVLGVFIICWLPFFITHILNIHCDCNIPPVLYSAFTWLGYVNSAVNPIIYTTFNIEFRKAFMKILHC

Consider `C=CCN1CC[C@@H]2Cc3c(cccc3OC)C[C@H]21`, for which the Time was 1.5 s in the experiment with Mus musculus [1]; 600 s in the experiment with Mus musculus [2]; 570 s with Mus musculus [6]; 1 s with Mus musculus [8]; 198 s in the experiment on Mus musculus [9]; 5 s in the experiment with Mus musculus [13]. The Time with Mus musculus [14] is 109 s; in the experiment on Mus musculus [15], 257 s; in the experiment with Mus musculus [16] it was 397 s; with Mus musculus [18], 5 s; with Mus musculus [19], 1.7 s. Further, at D(2) dopamine receptor, the IC50 is above 1000 nM. Besides, the ED50 in the experiment on Rattus norvegicus [3] came to 0.05 µmol/kg; with Mus musculus [5] it was 0.6 µM/kg; in the experiment on Mus musculus [11], 1.1 µM/kg; with Rattus norvegicus [12] it was 0.08 µM/kg. For the same molecule, the Control in the experiment with Rattus norvegicus [4] is -37%; with Rattus norvegicus [10] it was -41%. Also, the Max temperature decrease in the experiment with Mus musculus [7] is 5.6; in the experiment with Mus musculus [17], 4.5.

Regarding `CCCN1CCCC(c2cccc(O)c2)C1` (single isomer, unassigned; (-)), the Locomotor activity in the experiment on Mus musculus [20] amounted to 13; with Mus musculus [21], 8; in the experiment with Mus musculus [22], 91; in the experiment on Mus musculus [23], 83; in the experiment with Mus musculus [24], 58; in the experiment with Mus musculus [25], 127. In addition, the Locomotor activity is 106 in the experiment on Mus musculus [26]; 41 with Mus musculus [27]; 106 in the experiment on Mus musculus [28]; 31 with Mus musculus [29]; 59 in the experiment on Mus musculus [30]; 118 with Mus musculus [31].

Regarding `O=C(CCCN1CCC(O)(c2ccc(Cl)cc2)CC1)c1ccc(F)cc1` [HALOPERIDOL], the ED50 came out at 0.018 µmol/kg in the experiment on Rattus norvegicus [3] and 0.019 µmol/kg in the experiment on Rattus norvegicus [12] (Rattus norvegicus, Dorsal raphe nucleus, iv, read-out: ED50). Also, the Control is listed as 144% in the experiment with Rattus norvegicus [32] and -6.6% in the experiment on Rattus norvegicus [35]. For the same molecule, the Locomotor activity is given as 72 in the experiment on Mus musculus [33]; 1 in the experiment on Mus musculus [34]; 94 in the experiment with Mus musculus [25]; 71 with Mus musculus [28]; 9 with Mus musculus [29]; 10 in the experiment with Mus musculus [36]. Also, the Locomotor activity was found to be 28 in the experiment on Mus musculus [37] and 58 with Mus musculus [31].

As a reminder, the IC50 is the concentration that inhibits the measured activity by half. Low readings indicate inhibition by little substance, high ones a need for much substance.
